Source: PubChem BioAssay AID1259407 (Chemical Carcinogenesis Research Information System (CCRIS), 2018)
Active and inactive are the calls of the source. No rule for the calls is given here.

Test system: CCRIS mutagenicity, Ames/micronucleus/aberration tests
Test: CCRIS mutagenicity studies
[1] = Test System: AMES SALMONELLA TYPHIMURIUM, Strain/Indicator: TA98, Metabolic Activation: NONE, Method: STANDARD PLATE
[2] = Test System: AMES SALMONELLA TYPHIMURIUM, Strain/Indicator: TA100, Metabolic Activation: NONE, Method: STANDARD PLATE

For `ClC(Cl)(Cl)Cl`, the mutagenic call (End Point: IN VITRO CHROMOSOMAL ABERRATIONS, Test System: CHO-LB CELLS, Metabolic Activation: NONE) was “inactive; negative”, the mutagenic call (End Point: IN VITRO CHROMOSOMAL ABERRATIONS, Test System: CHO-LB CELLS, Metabolic Activation: RAT, LIVER, S-9, AROCLOR 1254) was “inactive; negative” and the mutagenic call (End Point: IN VIVO MICRONUCLEUS, Test System: BONE MARROW POLYCHROMATIC ERYTHROCYTES, Species: MOUSE, Strain/Sex: MALE, Route: IP INJECTION) was “active; positive”. The mutagenic call (End Point: In vitro chromosomal aberrations, Test System: Chinese hamster lung (CHL/IU) cells, Metabolic Activation: Rat, Liver, S9, Phenobarbital and 5,6-benzoflavone) was “inactive; negative”, the mutagenic call (Test System: AMES SALMONELLA TYPHIMURIUM, Strain/Indicator: TA97, Metabolic Activation: HAMSTER, LIVER, S-9, AROCLOR 1254 (10%), Method: PREINCUBATION) was “inactive; negative” and the mutagenic call (Test System: AMES SALMONELLA TYPHIMURIUM, Strain/Indicator: TA97, Metabolic Activation: HAMSTER, LIVER, S-9, AROCLOR 1254 (30%), Method: PREINCUBATION) was “inactive; negative”. The mutagenic call (Test System: AMES SALMONELLA TYPHIMURIUM, Strain/Indicator: TA97, Metabolic Activation: NONE, Method: PREINCUBATION) was “inactive; negative”, the mutagenic call (Test System: AMES SALMONELLA TYPHIMURIUM, Strain/Indicator: TA97, Metabolic Activation: NONE, Method: STANDARD PLATE) was “inactive; negative” and the mutagenic call (Test System: AMES SALMONELLA TYPHIMURIUM, Strain/Indicator: TA97, Metabolic Activation: RAT, LIVER, S-9, AROCLOR 1254 (10%), Method: PREINCUBATION) was “inactive; negative”. The mutagenic call (Test System: AMES SALMONELLA TYPHIMURIUM, Strain/Indicator: TA97, Metabolic Activation: RAT, LIVER, S-9, AROCLOR 1254 (30%), Method: PREINCUBATION) was “inactive; negative”, the mutagenic call (Test System: AMES SALMONELLA TYPHIMURIUM, Strain/Indicator: TA97, Metabolic Activation: RAT, LIVER, S-9, AROCLOR 1254, Method: STANDARD PLATE) was “inactive; negative” and the mutagenic call (Test System: AMES SALMONELLA TYPHIMURIUM, Strain/Indicator: TA98, Metabolic Activation: HAMSTER, LIVER, S-9, AROCLOR 1254 (10%), Method: PREINCUBATION) was “inactive; negative”. For the same compound, the mutagenic call (Test System: AMES SALMONELLA TYPHIMURIUM, Strain/Indicator: TA98, Metabolic Activation: HAMSTER, LIVER, S-9, AROCLOR 1254 (30%), Method: PREINCUBATION) was “inactive; negative”, the mutagenic call (Test System: AMES SALMONELLA TYPHIMURIUM, Strain/Indicator: TA98, Metabolic Activation: NONE, Method: GAS EXPOSURE) was “active; positive” and the mutagenic call (Test System: AMES SALMONELLA TYPHIMURIUM, Strain/Indicator: TA98, Metabolic Activation: NONE, Method: PREINCUBATION) was “inactive; negative”. The mutagenic call (Test System: AMES SALMONELLA TYPHIMURIUM, Strain/Indicator: TA98, Metabolic Activation: RAT LIVER S-9, PHENOBARBITOL AND 5,6-BENZOFLAVONE, Method: GAS EXPOSURE) was “inactive; negative”, the mutagenic call (Test System: AMES SALMONELLA TYPHIMURIUM, Strain/Indicator: TA98, Metabolic Activation: RAT, LIVER, S-9, AROCLOR 1254 (10%), Method: PREINCUBATION) was “inactive; negative” and the mutagenic call (Test System: AMES SALMONELLA TYPHIMURIUM, Strain/Indicator: TA98, Metabolic Activation: RAT, LIVER, S-9, AROCLOR 1254 (30%), Method: PREINCUBATION) was “inactive; negative”. The mutagenic call (Test System: AMES SALMONELLA TYPHIMURIUM, Strain/Indicator: TA98, Metabolic Activation: RAT, LIVER, S-9, AROCLOR 1254, Method: STANDARD PLATE) was “inactive; negative”, the mutagenic call (Test System: AMES SALMONELLA TYPHIMURIUM, Strain/Indicator: TA100, Metabolic Activation: HAMSTER, LIVER, S-9, AROCLOR 1254 (10%), Method: PREINCUBATION) was “inactive; negative” and the mutagenic call (Test System: AMES SALMONELLA TYPHIMURIUM, Strain/Indicator: TA100, Metabolic Activation: HAMSTER, LIVER, S-9, AROCLOR 1254 (30%), Method: PREINCUBATION) was “inactive; negative”. For the same compound, the mutagenic call (Test System: AMES SALMONELLA TYPHIMURIUM, Strain/Indicator: TA100, Metabolic Activation: NONE, Method: PREINCUBATION) was “inactive; negative”, the mutagenic call (Test System: AMES SALMONELLA TYPHIMURIUM, Strain/Indicator: TA100, Metabolic Activation: RAT, LIVER, S-9, AROCLOR 1254 (10%), Method: PREINCUBATION) was “inactive; negative” and the mutagenic call (Test System: AMES SALMONELLA TYPHIMURIUM, Strain/Indicator: TA100, Metabolic Activation: RAT, LIVER, S-9, AROCLOR 1254 (30%), Method: PREINCUBATION) was “inactive; negative”. The mutagenic call (Test System: AMES SALMONELLA TYPHIMURIUM, Strain/Indicator: TA1535, Metabolic Activation: HAMSTER, LIVER, S-9, AROCLOR 1254 (10%), Method: PREINCUBATION) was “inactive; negative”, the mutagenic call (Test System: AMES SALMONELLA TYPHIMURIUM, Strain/Indicator: TA1535, Metabolic Activation: HAMSTER, LIVER, S-9, AROCLOR 1254 (30%), Method: PREINCUBATION) was “inactive; negative” and the mutagenic call (Test System: AMES SALMONELLA TYPHIMURIUM, Strain/Indicator: TA1535, Metabolic Activation: NONE, Method: PREINCUBATION) was “inactive; negative”. The mutagenic call (Test System: AMES SALMONELLA TYPHIMURIUM, Strain/Indicator: TA1535, Metabolic Activation: NONE, Method: STANDARD PLATE) was “inactive; negative”, the mutagenic call (Test System: AMES SALMONELLA TYPHIMURIUM, Strain/Indicator: TA1535, Metabolic Activation: RAT, LIVER, S-9, AROCLOR 1254 (10%), Method: PREINCUBATION) was “inactive; negative” and the mutagenic call (Test System: AMES SALMONELLA TYPHIMURIUM, Strain/Indicator: TA1535, Metabolic Activation: RAT, LIVER, S-9, AROCLOR 1254 (30%), Method: PREINCUBATION) was “inactive; negative”. The mutagenic call (Test System: AMES SALMONELLA TYPHIMURIUM, Strain/Indicator: TA1535, Metabolic Activation: RAT, LIVER, S-9, AROCLOR 1254, Method: STANDARD PLATE) was “active; positive”, the mutagenic call (Test System: AMES SALMONELLA TYPHIMURIUM, Strain/Indicator: TA1537, Metabolic Activation: HAMSTER, LIVER, S-9, AROCLOR 1254 (10 OR 30%), Method: PREINCUBATION) was “inactive; negative” and the mutagenic call (Test System: AMES SALMONELLA TYPHIMURIUM, Strain/Indicator: TA1537, Metabolic Activation: NONE, Method: PREINCUBATION) was “inactive; negative”. The mutagenic call (Test System: AMES SALMONELLA TYPHIMURIUM, Strain/Indicator: TA1537, Metabolic Activation: NONE, Method: STANDARD PLATE) was “active; positive”, the mutagenic call (Test System: AMES SALMONELLA TYPHIMURIUM, Strain/Indicator: TA1537, Metabolic Activation: RAT, LIVER, S-9, AROCLOR 1254 (10 OR 30%), Method: PREINCUBATION) was “inactive; negative” and the mutagenic call (Test System: Ames Salmonella typhimurium, Strain/Indicator: TA98, Metabolic Activation: None, Method: Gas exposure method) was “active; positive”. The mutagenic call (Test System: Ames Salmonella typhimurium, Strain/Indicator: TA98, Metabolic Activation: Rat, Liver, S9, Sodium phenobarbital and 5,6-benzoflavone (10%), Method: Gas exposure method) was “inactive; negative”, the mutagenic call (Test System: Ames Salmonella typhimurium, Strain/Indicator: TA100, Metabolic Activation: None, Method: Gas exposure method) was “inactive; negative” and the mutagenic call (Test System: Ames Salmonella typhimurium, Strain/Indicator: TA100, Metabolic Activation: Rat, Liver, S9, Sodium phenobarbital and 5,6-benzoflavone (10%), Method: Gas exposure method) was “inactive; negative”. The mutagenic call (Test System: Ames Salmonella typhimurium, Strain/Indicator: TA1535, Metabolic Activation: None, Method: Gas exposure method) was “inactive; negative”, the mutagenic call (Test System: Ames Salmonella typhimurium, Strain/Indicator: TA1535, Metabolic Activation: Rat, Liver, S9, Sodium phenobarbital and 5,6-benzoflavone (10%), Method: Gas exposure method) was “inactive; negative” and the mutagenic call (Test System: Ames Salmonella typhimurium, Strain/Indicator: TA1537, Metabolic Activation: None, Method: Gas exposure method) was “inactive; negative”. For the same compound, the mutagenic call (Test System: Ames Salmonella typhimurium, Strain/Indicator: TA1537, Metabolic Activation: Rat, Liver, S9, Sodium phenobarbital and 5,6-benzoflavone (10%), Method: Gas exposure method) was “inactive; negative”, the mutagenic call (Test System: E. COLI, Strain/Indicator: WP2UVRA/PKM101, Metabolic Activation: NONE, Method: GAS EXPOSURE) was “active; positive” and the mutagenic call (Test System: E. COLI, Strain/Indicator: WP2UVRA/PKM101, Metabolic Activation: RAT LIVER S-9, PHENOBARBITOL AND 5,6-BENZOFLAVONE, GLUTATHIONE-SUPPLEMENTED, Method: GAS EXPOSURE) was “active; positive”. For the same compound, the mutagenic call (Test System: E. COLI, Strain/Indicator: WP2UVRA/PKM101, Metabolic Activation: RAT LIVER S-9, PHENOBARBITOL AND 5,6-BENZOFLAVONE, Method: GAS EXPOSURE) was “active; positive”, the mutagenic call (Test System: MOUSE LYMPHOMA, Strain/Indicator: L5178Y (TK+/TK-), Metabolic Activation: RAT, LIVER, S-9, AROCLOR 1254, Method: SUSPENSION/PLATE) was “inactive; negative” and the mutagenic call (Test System: UDS RAT HEPATOCYTES, Strain/Indicator: BROMODEOXYURIDINE INCORP, Metabolic Activation: NONE, Method: FLOW CYTOMETRIC ANALYSIS) was “inactive; negative”. The mutagenic call (Test System: UDS RAT HEPATOCYTES, Strain/Indicator: THY INCORP, Metabolic Activation: NONE, Method: AUTORADIOGRAPHY) was “inactive; negative”.

In the case of `COc1cc(-c2nc(-c3ccccc3)c(-c3ccccc3)[nH]2)ccc1O`, the mutagenic call [1] is reported as “inactive; negative”, the mutagenic call (Test System: AMES SALMONELLA TYPHIMURIUM, Strain/Indicator: TA98, Metabolic Activation: RAT LIVER S-9, 3-METHYLCHOLANTHRENE, SODIUM PHENOBARBITAL, Method: STANDARD PLATE) is reported as “inactive; negative” and the mutagenic call [2] is reported as “active; positive”.

In the case of `CNC(=O)ONC(C)=O`, the mutagenic call [1] is reported as “active; positive”, the mutagenic call (Test System: AMES SALMONELLA TYPHIMURIUM, Strain/Indicator: TA98, Metabolic Activation: RAT, LIVER, S-9, Method: STANDARD PLATE) is reported as “active; positive” and the mutagenic call [2] is reported as “active; positive”.
